Source: PubChem BioAssay AID1963442 (Molecular Pharmacology Branch, DTP, NCI, 2024)

Tested on: MPNST complex spheroid with HUVEC/MSC, growth, % test/control
Assay: Anticancer human tumor MPNST cell line growth inhibition [Asc];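 also: compounds left on spheroids for seven days before reading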
Settings: for IC50: curve of first compound; for viability, T/C: stronger effect = lower value
How it was run: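 Spheroid model: tumor line + HUVEC + hMSC. Single agents and combinations; top conc. at/near clinical Cmax (10 microM if undetermined), half-log dilutions. DMSO stocks at 800-fold test concentration.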

## Cc1nc(N2CCC3(CC2)COC(C)C3N)c(CO)nc1Sc1ccnc(N)c1Cl (configuration not stated) + CNC(C)C(=O)NC1CN(S(=O)(=O)c2cccc(S(=O)(=O)N3CCC4CCC(C(=O)NC(c5ccccc5)c5ccccc5)N4C(=O)C(NC(=O)C(C)NC)C3)c2)CCC2CCC(C(=O)NC(c3ccccc3)c3ccccc3)N2C1=O
Second compound 0.00316 µM
  IC50: 105 nM
Second compound 0.01 µM
  IC50: 125 nM
Second compound 0.0316 µM
  IC50: 119 nM
Second compound 0.1 µM
  IC50: 157 nM
Second compound 0.316 µM
  IC50: 647 nM
Second compound 1 µM
  IC50: 300 nM
Second compound 0.00316 µM, first compound 0.00949 µM
  viability, T/C: 90.5%
Second compound 0.00316 µM, first compound 0.03 µM
  viability, T/C: 56.4%
Second compound 0.00316 µM, first compound 0.0949 µM
  viability, T/C: 57%
Second compound 0.00316 µM, first compound 0.3 µM
  viability, T/C: 41.5%
Second compound 0.00316 µM, first compound 0.949 µM
  viability, T/C: 62.1%
Second compound 0.00316 µM, first compound 3 µM
  viability, T/C: 30.6%
Second compound 0.01 µM, first compound 0.00949 µM
  viability, T/C: 103%
Second compound 0.01 µM, first compound 0.03 µM
  viability, T/C: 54%
Second compound 0.01 µM, first compound 0.0949 µM
  viability, T/C: 60.7%
Second compound 0.01 µM, first compound 0.3 µM
  viability, T/C: 51.6%
Second compound 0.01 µM, first compound 0.949 µM
  viability, T/C: 39.5%
Second compound 0.01 µM, first compound 3 µM
  viability, T/C: 25%
Second compound 0.0316 µM, first compound 0.00949 µM
  viability, T/C: 114%
Second compound 0.0316 µM, first compound 0.03 µM
  viability, T/C: 59.2%
Second compound 0.0316 µM, first compound 0.0949 µM
  viability, T/C: 65.9%
Second compound 0.0316 µM, first compound 0.3 µM
  viability, T/C: 40.1%
Second compound 0.0316 µM, first compound 0.949 µM
  viability, T/C: 42.8%
Second compound 0.0316 µM, first compound 3 µM
  viability, T/C: 40%
Second compound 0.1 µM, first compound 0.00949 µM
  viability, T/C: 68.9%
Second compound 0.1 µM, first compound 0.03 µM
  viability, T/C: 66.1%
Second compound 0.1 µM, first compound 0.0949 µM
  viability, T/C: 52.5%
Second compound 0.1 µM, first compound 0.3 µM
  viability, T/C: 45.8%
Second compound 0.1 µM, first compound 0.949 µM
  viability, T/C: 32.6%
Second compound 0.1 µM, first compound 3 µM
  viability, T/C: 28.8%
Second compound 0.316 µM, first compound 0.00949 µM
  viability, T/C: 60.8%
Second compound 0.316 µM, first compound 0.03 µM
  viability, T/C: 80.8%
Second compound 0.316 µM, first compound 0.0949 µM
  viability, T/C: 60.3%
Second compound 0.316 µM, first compound 0.3 µM
  viability, T/C: 57.4%
Second compound 0.316 µM, first compound 0.949 µM
  viability, T/C: 47%
Second compound 0.316 µM, first compound 3 µM
  viability, T/C: 31.7%
Second compound 1 µM, first compound 0.00949 µM
  viability, T/C: 71.5%
Second compound 1 µM, first compound 0.03 µM
  viability, T/C: 67.8%
Second compound 1 µM, first compound 0.0949 µM
  viability, T/C: 49.9%
Second compound 1 µM, first compound 0.3 µM
  viability, T/C: 48.1%
Second compound 1 µM, first compound 0.949 µM
  viability, T/C: 52.9%
Second compound 1 µM, first compound 3 µM
  viability, T/C: 28.6%

## Cn1ncnc1[C@H]1c2n[nH]c(=O)c3cc(F)cc(c23)N[C@@H]1c1ccc(F)cc1 + Cc1c(S(C)(=O)=O)c(-c2cc(F)cc(N3CCN(c4ccc(NS(=O)(=O)c5ccc(NC(CCN6CCC(C(=O)OCCCP(=O)(O)O)CC6)CSc6ccccc6)c(S(=O)(=O)C(F)(F)F)c5)cc4)CC3)c2)c(-c2ccc(Cl)cc2)n1C(C)C
Second compound 0.1 µM
  IC50: > 100 nM
Second compound 0.316 µM
  IC50: > 100 nM
Second compound 1 µM
  IC50: > 100 nM
Second compound 3.16 µM
  IC50: > 100 nM
Second compound 10 µM
  IC50: > 100 nM
Second compound 0.1 µM, first compound 0.000316 µM
  viability, T/C: 78.7%
Second compound 0.1 µM, first compound 0.001 µM
  viability, T/C: 77.9%
Second compound 0.1 µM, first compound 0.00316 µM
  viability, T/C: 72.1%
Second compound 0.1 µM, first compound 0.01 µM
  viability, T/C: 71.5%
Second compound 0.1 µM, first compound 0.0316 µM
  viability, T/C: 77.2%
Second compound 0.1 µM, first compound 0.1 µM
  viability, T/C: 50.6%
Second compound 0.316 µM, first compound 0.000316 µM
  viability, T/C: 71.8%
Second compound 0.316 µM, first compound 0.001 µM
  viability, T/C: 74.6%
Second compound 0.316 µM, first compound 0.00316 µM
  viability, T/C: 80.4%
Second compound 0.316 µM, first compound 0.01 µM
  viability, T/C: 97.1%
Second compound 0.316 µM, first compound 0.0316 µM
  viability, T/C: 66.9%
Second compound 0.316 µM, first compound 0.1 µM
  viability, T/C: 59.8%
Second compound 1 µM, first compound 0.000316 µM
  viability, T/C: 84.7%
Second compound 1 µM, first compound 0.001 µM
  viability, T/C: 78.4%
Second compound 1 µM, first compound 0.00316 µM
  viability, T/C: 93.8%
Second compound 1 µM, first compound 0.01 µM
  viability, T/C: 72.1%
Second compound 1 µM, first compound 0.0316 µM
  viability, T/C: 55.9%
Second compound 1 µM, first compound 0.1 µM
  viability, T/C: 65.2%
Second compound 3.16 µM, first compound 0.000316 µM
  viability, T/C: 86.7%
Second compound 3.16 µM, first compound 0.001 µM
  viability, T/C: 75.8%
Second compound 3.16 µM, first compound 0.00316 µM
  viability, T/C: 72.6%
Second compound 3.16 µM, first compound 0.01 µM
  viability, T/C: 63.3%
Second compound 3.16 µM, first compound 0.0316 µM
  viability, T/C: 61%
Second compound 3.16 µM, first compound 0.1 µM
  viability, T/C: 56%
Second compound 10 µM, first compound 0.000316 µM
  viability, T/C: 100%
Second compound 10 µM, first compound 0.001 µM
  viability, T/C: 84.8%
Second compound 10 µM, first compound 0.00316 µM
  viability, T/C: 66.1%
Second compound 10 µM, first compound 0.01 µM
  viability, T/C: 64.2%
Second compound 10 µM, first compound 0.0316 µM
  viability, T/C: 60.2%
Second compound 10 µM, first compound 0.1 µM
  viability, T/C: 73.6%
